This note sets out measurements from patent publication US8173638B2 (Boehringer Ingelheim International GmbH, priority 2006, dated 2012).

This assay deals with T1, human CB2R (Homo sapiens, UniProt P34972).
T1 construct: host or cells: CHO cells
T1 sequence (P34972 whole entry): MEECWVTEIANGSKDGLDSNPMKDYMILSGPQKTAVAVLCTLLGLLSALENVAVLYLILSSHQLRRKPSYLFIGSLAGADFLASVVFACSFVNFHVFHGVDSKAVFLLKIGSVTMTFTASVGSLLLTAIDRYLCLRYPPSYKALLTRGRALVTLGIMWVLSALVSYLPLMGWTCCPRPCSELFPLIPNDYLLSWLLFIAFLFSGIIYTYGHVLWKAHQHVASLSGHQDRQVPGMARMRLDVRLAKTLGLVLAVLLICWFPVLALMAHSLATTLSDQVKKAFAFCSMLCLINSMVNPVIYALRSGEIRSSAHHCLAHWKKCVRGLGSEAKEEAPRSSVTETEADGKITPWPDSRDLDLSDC
Nature of the assay: CB2R mediated modulation of cAMP synthesis. It counts as cell-based. To be noted: found through the use of the described assays (CB2 agonists); qualitative statement. As to the method: B. CB2R Mediated Modulation of cAMP Synthesis:
CHO cells expressing human CB2R (Euroscreen) were plated at a density of 5000 cells per well in 384 well plates and incubated overnight at 37° C. After removing the media, the cells were treated with test compounds diluted in stimulation buffer containing 1 mM IBMX, 0.25% BSA and 10 uM Forskolin. The assay was incubated for 30 minutes at 37° C. Cells were lysed and the cAMP concentration was measured using DiscoverX-XS cAMP kit, following the manufacturer's protocol. In this setting, agonists will decrease forskolin induced production of cAMP while inverse agonists will further increase forskolin induced production of cAMP. EC50 of agonists were calculated as follows. The maximal amount of cAMP produced by forskolin compared to the level of cAMP inhibited by 1 uM CP55940 is defined as 100%. […] Data was analyzed using a four-parameter logistic model. (Model 205 of XLfit 4.0).
For `O=C(CC1CCCC1)N1CCCN(C(=O)Nc2cc(Cl)cc(Cl)c2)CC1` [4-(2-Cyclopentyl-acetyl)-[1,4]diazepane-1-carboxylic acid (3,5-dichloro-phenyl)-amide], the agonistic activity entry is “agonistic activity”.

As for `O=C(CC1CCCC1)N1CCCN(C(=O)Nc2cccc(C(F)(F)F)c2)CC1` [4-(2-Cyclopentyl-acetyl)-[1,4]diazepane-1-carboxylic acid (3-trifluoromethyl-phenyl)-amide], the agonistic activity result is “agonistic activity”. With `O=C(CC1CCCC1)N1CCCN(C(=O)Nc2ccc(-c3ccccc3)cc2)CC1` [4-(2-Cyclopentyl-acetyl)-[1,4]diazepane-1-carboxylic acid (4-biphenyl)-amide] the entry was “agonistic activity”. With `CCCC(=O)c1ccc(NC(=O)N2CCCN(C(=O)CC3CCCC3)CC2)cc1` [4-(2-Cyclopentyl-acetyl)-[1,4]diazepane-1-carboxylic acid (4-butyryl-phenyl)-amide] the entry was “agonistic activity”; with `CCc1ccc(NC(=O)N2CCCN(C(=O)CC3CCCC3)CC2)cc1` [4-(2-Cyclopentyl-acetyl)-[1,4]diazepane-1-carboxylic acid (4-ethyl-phenyl)-amide], “agonistic activity”. With `CC(C)c1ccc(NC(=O)N2CCCN(C(=O)CC3CCCC3)CC2)cc1` [4-(2-Cyclopentyl-acetyl)-[1,4]diazepane-1-carboxylic acid (4-isopropyl-phenyl)-amide] the entry was “agonistic activity”; with `CS(=O)(=O)c1ccc(NC(=O)N2CCCN(C(=O)CC3CCCC3)CC2)cc1` [4-(2-Cyclopentyl-acetyl)-[1,4]diazepane-1-carboxylic acid (4-methanesulfonyl-phenyl)-amide], “agonistic activity”; with `CSc1ccc(NC(=O)N2CCCN(C(=O)CC3CCCC3)CC2)cc1` [4-(2-Cyclopentyl-acetyl)-[1,4]diazepane-1-carboxylic acid (4-methylsulfanyl-phenyl)-amide], “agonistic activity”. Take `CCCCCc1ccc(NC(=O)N2CCCN(C(=O)CC3CCCC3)CC2)cc1` [4-(2-Cyclopentyl-acetyl)-[1,4]diazepane-1-carboxylic acid (4-n-pentyl-phenyl)-amide]: the agonistic activity entry is “agonistic activity”. Then `CCC(C)c1ccc(NC(=O)N2CCCN(C(=O)CC3CCCC3)CC2)cc1` (centres unmarked) [4-(2-Cyclopentyl-acetyl)-[1,4]diazepane-1-carboxylic acid (4-sec-butyl-phenyl)-amide], with “agonistic activity”; and `CC(C)(C)c1ccc(NC(=O)N2CCCN(C(=O)CC3CCCC3)CC2)cc1` [4-(2-Cyclopentyl-acetyl)-[1,4]diazepane-1-carboxylic acid (4-tert-butyl-phenyl)-amide], with “agonistic activity”. With `O=C(CC1CCCC1)N1CCCN(C(=O)Nc2ccc(OC(F)(F)F)cc2)CC1` [4-(2-Cyclopentyl-acetyl)-[1,4]diazepane-1-carboxylic acid (4-trifluoromethoxy-phenyl)-amide] the entry was “agonistic activity”.

With `O=C(CC1CCCC1)N1CCCN(C(=O)Nc2ccc(C(F)(F)F)cc2)CC1` [4-(2-Cyclopentyl-acetyl)-[1,4]diazepane-1-carboxylic acid (4-trifluoromethyl-phenyl)-amide], the agonistic activity entry is “agonistic activity”. Then `CC(C)(C)c1cc(NC(=O)N2CCCN(C(=O)CC3CCCC3)CC2)no1` [4-(2-Cyclopentyl-acetyl)-[1,4]diazepane-1-carboxylic acid (5-tert-butyl-isoxazol-3-yl)-amide], with “agonistic activity”; and `CCCC(O)c1ccc(NC(=O)N2CCCN(C(=O)CC3CCCC3)CC2)cc1` (centres unmarked) [4-(2-Cyclopentyl-acetyl)-[1,4]diazepane-1-carboxylic acid [4-(1-hydroxy-butyl)-phenyl]-amide], with “agonistic activity”; and `CC(C)(C)c1ccc(NC(=O)N2CCCN(C(=O)COc3ccccc3)CC2)cc1` [4-(2-Phenoxy-acetyl)-[1,4]diazepane-1-carboxylic acid (4-tert-butyl-phenyl)-amide], with “agonistic activity”. With `O=C(COc1ccccc1)N1CCCN(C(=O)Nc2ccc3ccccc3c2)CC1` [4-(2-Phenoxy-acetyl)-[1,4]diazepane-1-carboxylic acid naphthalen-2-ylamide] the entry was “agonistic activity”; with `CC(C)(C)c1ccc(NC(=O)N2CCCN(C(=O)CNc3ccccc3)CC2)cc1` [4-(2-Phenylamino-acetyl)-[1,4]diazepane-1-carboxylic acid (4-tert-butyl-phenyl)-amide], “agonistic activity”; with `CC(C)(C)c1ccc(NC(=O)N2CCCN(C(=O)CN3CCCCC3)CC2)cc1` [4-(2-Piperidin-1-yl-acetyl)-[1,4]diazepane-1-carboxylic acid (4-tert-butyl-phenyl)-amide], “agonistic activity”. With `O=C(CN1CCCCC1)N1CCCN(C(=O)Nc2ccc3ccccc3c2)CC1` [4-(2-Piperidin-1-yl-acetyl)-[1,4]diazepane-1-carboxylic acid naphthalen-2-ylamide] the entry was “agonistic activity”; with `CC(C)(C)c1cc(NC(=O)N2CCCN(C(=O)CC3CCCO3)CC2)no1` (centres unmarked) [4-(2-Tetrahydro-furan-2-yl-acetyl)-[1,4]diazepane-1-carboxylic acid (5-tert-butyl-isoxazol-3-yl)-amide], “agonistic activity”; with `O=C(CC1CCOCC1)N1CCCN(C(=O)Nc2ccc3c(c2)OC(F)(F)O3)CC1` [4-(2-Tetrahydro-pyran-4-yl-acetyl)-[1,4]diazepane-1-carboxylic acid (2,2-difluoro-benzo[1,3]dioxol-5-yl)-amide], “agonistic activity”. For the molecule `O=C(CC1CCOCC1)N1CCCN(C(=O)Nc2ccc3ccccc3c2)CC1` [4-(2-Tetrahydro-pyran-4-yl-acetyl)-[1,4]diazepane-1-carboxylic acid (2-naphthyl)-amide], the agonistic activity result was “agonistic activity”. Then `O=C(CC1CCOCC1)N1CCCN(C(=O)Nc2cc(Cl)cc(Cl)c2)CC1` [4-(2-Tetrahydro-pyran-4-yl-acetyl)-[1,4]diazepane-1-carboxylic acid (3,5-dichloro-phenyl)-amide], with “agonistic activity”; and `CCCCc1ccc(NC(=O)N2CCCN(C(=O)CC3CCOCC3)CC2)cc1` [4-(2-Tetrahydro-pyran-4-yl-acetyl)-[1,4]diazepane-1-carboxylic acid (4-butyl-phenyl)-amide], with “agonistic activity”; and `CCc1ccc(NC(=O)N2CCCN(C(=O)CC3CCOCC3)CC2)cc1` [4-(2-Tetrahydro-pyran-4-yl-acetyl)-[1,4]diazepane-1-carboxylic acid (4-ethyl-phenyl)-amide], with “agonistic activity”. With `CC(C)c1ccc(NC(=O)N2CCCN(C(=O)CC3CCOCC3)CC2)cc1` [4-(2-Tetrahydro-pyran-4-yl-acetyl)-[1,4]diazepane-1-carboxylic acid (4-isopropyl-phenyl)-amide], the agonistic activity entry was “agonistic activity”. With `CS(=O)(=O)c1ccc(NC(=O)N2CCCN(C(=O)CC3CCOCC3)CC2)cc1` [4-(2-Tetrahydro-pyran-4-yl-acetyl)-[1,4]diazepane-1-carboxylic acid (4-methanesulfonyl-phenyl)-amide] the entry was “agonistic activity”. `CSc1ccc(NC(=O)N2CCCN(C(=O)CC3CCOCC3)CC2)cc1` [4-(2-Tetrahydro-pyran-4-yl-acetyl)-[1,4]diazepane-1-carboxylic acid (4-methylsulfanyl-phenyl)-amide]: the agonistic activity entry is “agonistic activity”.

As to `CCCCCc1ccc(NC(=O)N2CCCN(C(=O)CC3CCOCC3)CC2)cc1` [4-(2-Tetrahydro-pyran-4-yl-acetyl)-[1,4]diazepane-1-carboxylic acid (4-pentyl-phenyl)-amide], the agonistic activity entry is reported as “agonistic activity”. Then `CCC(C)c1ccc(NC(=O)N2CCCN(C(=O)CC3CCOCC3)CC2)cc1` (centres unmarked) [4-(2-Tetrahydro-pyran-4-yl-acetyl)-[1,4]diazepane-1-carboxylic acid (4-sec-butyl-phenyl)-amide], with “agonistic activity”. For the molecule `CC(C)(C)c1ccc(NC(=O)N2CCCN(C(=O)CC3CCOCC3)CC2)cc1` [4-(2-Tetrahydro-pyran-4-yl-acetyl)-[1,4]diazepane-1-carboxylic acid (4-tert-butyl-phenyl)-amide], the agonistic activity entry is “agonistic activity”. With `O=C(CC1CCOCC1)N1CCCN(C(=O)Nc2ccc(OC(F)(F)F)cc2)CC1` [4-(2-Tetrahydro-pyran-4-yl-acetyl)-[1,4]diazepane-1-carboxylic acid (4-trifluoromethoxy-phenyl)-amide] the entry was “agonistic activity”; with `O=C(CC1CCOCC1)N1CCCN(C(=O)Nc2ccc(C(F)(F)F)cc2)CC1` [4-(2-Tetrahydro-pyran-4-yl-acetyl)-[1,4]diazepane-1-carboxylic acid (4-trifluoromethyl-phenyl)-amide], “agonistic activity”; with `CC(C)(C)c1ccc(NC(=O)N2CCCN(C(=O)CN3CCSCC3)CC2)cc1` [4-(2-Thiomorpholin-4-yl-acetyl)-[1,4]diazepane-1-carboxylic acid (4-tert-butyl-phenyl)-amide], “agonistic activity”.
